# Assay results reported in patent publication US7544373B2, “Minocycline oral dosage forms for the treatment of acne” (Medicis Pharmaceutical Corporation, priority 2007, dated 2009).
# Experiment: Repeat-dose primate toxicology studies
# Assay type: in vivo
smiles,measurement,setting,value
CN(C)c1ccc(O)c2c1C[C@H]1C[C@H]3[C@H](N(C)C)C(O)=C(C(N)=O)C(=O)[C@@]3(O)C(O)=C1C2=O [minocycline],lowest exposure which yields adverse effects,4 weeks,~15 µg/mL
same,lowest exposure which yields adverse effects,13 weeks,~7 µg/mL
